Assay results taken from the supplement of paper PMC8967900.

Assays:
Assay in all cases: selective drug sensitivity score (sDSS, relative to normal bone marrow) (sDSS (score)); higher = more potent and effective on the cell line relative to normal bone marrow cells
Conditions in all cases: 72 h
ALL-PO = tested on: ALL-PO
KASUMI-9 = tested on: KASUMI-9
NALM-6 = tested on: NALM-6
TANOUE = tested on: TANOUE
COG-LL-332h = tested on: COG-LL-332h
COG-LL-394h = tested on: COG-LL-394h
380 = tested on: 380
PEER = tested on: PEER
697 = tested on: 697
MOLT-14 = tested on: MOLT-14
MOLT-16 = tested on: MOLT-16
P12-ICHIKAWA = tested on: P12-ICHIKAWA
COG-LL-355h = tested on: COG-LL-355h
CCRF-CEM = tested on: CCRF-CEM
MHH-CALL-3 = tested on: MHH-CALL-3
TMD5 = tested on: TMD5
COG-LL-319h = tested on: COG-LL-319h
MHH-CALL-4 = tested on: MHH-CALL-4
REH = tested on: REH
HAL-01 = tested on: HAL-01
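Further: ALL cell lines in 384-well plates, five doses spanning 10,000-fold, each plate scaled between vehicle and 100 µmol/L benzalkonium chloride controls, sDSS an adapted area-under-curve metric.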

| Structure (SMILES) | selective drug sensitivity score (ALL-PO) | selective drug sensitivity score (KASUMI-9) | selective drug sensitivity score (NALM-6) | selective drug sensitivity score (TANOUE) | selective drug sensitivity score (COG-LL-332h) | selective drug sensitivity score (COG-LL-394h) | selective drug sensitivity score 380 | selective drug sensitivity score (PEER) | selective drug sensitivity score 697 | selective drug sensitivity score (MOLT-14) | selective drug sensitivity score (MOLT-16) | selective drug sensitivity score (P12-ICHIKAWA) | selective drug sensitivity score (COG-LL-355h) | selective drug sensitivity score (CCRF-CEM) | selective drug sensitivity score (MHH-CALL-3) | selective drug sensitivity score (TMD5) | selective drug sensitivity score (COG-LL-319h) | selective drug sensitivity score (MHH-CALL-4) | selective drug sensitivity score (REH) | selective drug sensitivity score (HAL-01) |
| --- | --- | --- | --- | --- | --- | --- | --- | --- | --- | --- | --- | --- | --- | --- | --- | --- | --- | --- | --- | --- |
| COc1cccc2c1c(O)c(C(=O)N(C)c1ccc(C(F)(F)F)cc1)c(=O)n2C [Tasquinimod] (top concentration 10000 nM) | -0.32 | -0.42 | -0.42 | 1.58 | 0.48 | -0.42 | -0.42 | -0.32 | -0.42 | -0.42 | -0.42 | -0.42 | -0.42 | -0.42 | -0.42 | -0.42 | 16.6 | 0.68 | -0.42 | -0.42 |
| Nc1nc2[nH]cnc2c(=S)[nH]1 [Thioguanine] (top concentration 10000 nM) | 11.2 | 11.2 | 10.2 | 5.54 | 14.5 | 2.44 | 6.04 | 13.1 | 8.84 | 15.7 | 15.2 | 13.6 | 4.04 | 15.3 | -1.36 | -3.46 | 18.6 | 4.34 | 10.8 | 9.44 |
| CC#CC(=O)N1CC[C@@H](n2c(=O)n(-c3ccc(Oc4ccccc4)cc3)c3c(N)ncnc32)C1 [Tirabrutinib] (top concentration 1000 nM) | 0 | 0 | 0 | 0 | 1.8 | 0 | 1.2 | 0 | 0 | 0 | 0.9 | 0 | 0 | 0 | 1.7 | 1 | 3.7 | 1.5 | 0 | 6.5 |
| CC(C)C[C@@H](C(=O)N[C@H](C(=O)OC1CCCC1)c1ccccc1)[C@H](O)C(=O)NO [Tosedostat] (top concentration 10000 nM) | 6.96 | 2.56 | -1.04 | -5.24 | 2.26 | 1.26 | 5.76 | 0.06 | -1.54 | 6.46 | 10.4 | -0.24 | 11.4 | 4.36 | 15.3 | 0.46 | 3.96 | 1.26 | -0.64 | -3.84 |
| CS(=O)(=O)c1ccc(-c2cnc(N)c(C(=O)Nc3ccccc3)n2)cc1 [VE-821] (top concentration 10000 nM) | 2.64 | 0.84 | -0.66 | 0.64 | 4.74 | -0.66 | 2.54 | 0.54 | -0.66 | 0.74 | 7.94 | 3.14 | 5.64 | -0.66 | -0.06 | -0.66 | 11.2 | -0.66 | 7.14 | 4.54 |
| CNC(=O)c1ccccc1Nc1cc(Nc2ccc(N3CCOCC3)cc2OC)ncc1C(F)(F)F [VS-4718] (top concentration 10000 nM) | 14 | 2.1 | 0.4 | -5 | -0.3 | -0.4 | -5 | 3.6 | 0.7 | 1.1 | 6.1 | 1.7 | 1.3 | 2 | -5 | 6.8 | -5 | 6.4 | -1.1 | 8.7 |
| Cc1cccc(-c2[nH]c(CNc3ccccc3F)nc2-c2ccc3ncnn3c2)n1 [Vactosertib (TEW-7197)] (top concentration 2500 nM) | -0.5 | 1.4 | -0.5 | -0.5 | -0.2 | -0.5 | 0.8 | -0.5 | -0.5 | 0.8 | 10.7 | -0.5 | 1.2 | -0.5 | -0.5 | -0.5 | 7.2 | 7.2 | -0.5 | 0 |
| O=C(/C=C\n1cnc(-c2cc(C(F)(F)F)cc(C(F)(F)F)c2)n1)NNc1ccccn1 [Verdinexor] (top concentration 1000 nM) | 7.54 | 3.74 | 11.7 | -6.96 | 7.74 | 3.64 | 12 | 5.44 | 6.34 | 13.3 | 11.1 | 5.64 | 8.54 | 5.24 | 20.5 | 0.14 | 11.3 | 1.84 | 4.44 | 3.94 |
| CC[C@@H]1C(=O)N(C)c2cnc(Nc3ccc(C(=O)N[C@H]4CC[C@H](N5CCN(CC6CC6)CC5)CC4)cc3OC)nc2N1C(C)C [Volasertib] (top concentration 1000 nM) | 16.1 | 18.5 | 11.9 | -7 | 12 | 7.7 | 15 | 18.7 | 12.1 | 13.4 | 12.7 | 11.5 | 6.4 | 13.8 | 2.9 | 10.1 | 14.9 | 0.9 | 12.8 | 5.8 |
| O=C(CCCCCCC(=O)Nc1ccccc1)NO [Vorinostat] (top concentration 10000 nM) | 10.1 | 11.6 | 2.3 | -2.6 | 3.4 | 1 | 8.8 | 9.7 | 10.1 | 9.6 | 15.5 | 6.6 | 7.7 | 5.9 | 14.1 | -0.1 | 11.5 | 3.9 | 4.5 | 0.8 |
